Five compounds from paper PMC5540273, “Progress towards a public chemogenomic set for protein kinases and a call for contributions” (PLoS ONE, 2017) can be followed below.

Common to all, as to assay: KINOMEscan competition binding
For one assay, the target named is CAMK1 (Homo sapiens, UniProt Q14012). The conditions noted are these: read-out: %Inh CAMK1.
A further assay deals with FYN (Homo sapiens, UniProt P06241). The conditions noted are these: read-out: %Inh FYN.
The target in the next assay is BRK (Homo sapiens, UniProt Q13882). The conditions noted are these: read-out: %Inh BRK.
The next assay has as its target T1, MAP3K15 (Homo sapiens, UniProt Q6ZN16).
T1 sequence (Q6ZN16 1-1313): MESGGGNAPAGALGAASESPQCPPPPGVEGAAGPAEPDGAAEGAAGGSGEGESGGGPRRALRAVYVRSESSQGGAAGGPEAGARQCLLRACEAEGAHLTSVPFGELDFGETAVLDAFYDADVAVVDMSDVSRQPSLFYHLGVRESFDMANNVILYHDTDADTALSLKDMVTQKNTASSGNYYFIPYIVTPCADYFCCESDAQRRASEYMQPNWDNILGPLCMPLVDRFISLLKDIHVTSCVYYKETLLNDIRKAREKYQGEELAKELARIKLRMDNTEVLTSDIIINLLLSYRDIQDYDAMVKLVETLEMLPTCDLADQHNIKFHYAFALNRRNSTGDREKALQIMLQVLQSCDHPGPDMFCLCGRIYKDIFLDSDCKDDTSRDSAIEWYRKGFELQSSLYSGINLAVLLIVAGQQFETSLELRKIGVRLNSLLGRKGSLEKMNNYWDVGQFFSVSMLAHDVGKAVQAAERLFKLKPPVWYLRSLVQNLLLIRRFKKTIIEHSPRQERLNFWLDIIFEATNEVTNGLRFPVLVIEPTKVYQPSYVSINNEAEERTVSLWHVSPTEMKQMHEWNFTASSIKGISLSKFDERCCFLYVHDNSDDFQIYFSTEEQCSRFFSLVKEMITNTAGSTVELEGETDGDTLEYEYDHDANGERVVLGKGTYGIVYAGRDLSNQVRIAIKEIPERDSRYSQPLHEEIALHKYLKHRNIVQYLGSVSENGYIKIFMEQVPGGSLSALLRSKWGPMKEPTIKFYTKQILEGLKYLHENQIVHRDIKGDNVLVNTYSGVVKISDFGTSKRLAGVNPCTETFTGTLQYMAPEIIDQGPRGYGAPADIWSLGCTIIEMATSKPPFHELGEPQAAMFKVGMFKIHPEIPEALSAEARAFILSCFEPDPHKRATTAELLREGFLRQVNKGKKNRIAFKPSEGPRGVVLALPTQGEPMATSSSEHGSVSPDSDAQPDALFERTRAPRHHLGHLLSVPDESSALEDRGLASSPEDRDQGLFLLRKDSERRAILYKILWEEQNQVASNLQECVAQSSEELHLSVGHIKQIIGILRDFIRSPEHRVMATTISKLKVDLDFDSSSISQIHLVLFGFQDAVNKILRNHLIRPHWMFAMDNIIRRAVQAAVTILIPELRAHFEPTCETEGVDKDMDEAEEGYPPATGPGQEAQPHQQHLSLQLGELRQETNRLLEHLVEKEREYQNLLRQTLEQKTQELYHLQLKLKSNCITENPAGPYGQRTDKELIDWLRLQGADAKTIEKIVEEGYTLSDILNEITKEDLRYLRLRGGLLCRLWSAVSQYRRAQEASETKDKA
As to conditions: read-out: %Inh MAP3K15.

Another assay addresses ERK3 (Homo sapiens, UniProt Q16659). As to conditions: read-out: %Inh ERK3.
The target of another assay is BLK (Homo sapiens, UniProt P51451). As to conditions: read-out: %Inh BLK.
The next assay deals with GSK3A (Homo sapiens, UniProt P49840). The conditions noted are these: read-out: %Inh GSK3A.
Another assay addresses T2, ACVR1 (Homo sapiens, UniProt Q04771).
T2 sequence (Q04771 21-509): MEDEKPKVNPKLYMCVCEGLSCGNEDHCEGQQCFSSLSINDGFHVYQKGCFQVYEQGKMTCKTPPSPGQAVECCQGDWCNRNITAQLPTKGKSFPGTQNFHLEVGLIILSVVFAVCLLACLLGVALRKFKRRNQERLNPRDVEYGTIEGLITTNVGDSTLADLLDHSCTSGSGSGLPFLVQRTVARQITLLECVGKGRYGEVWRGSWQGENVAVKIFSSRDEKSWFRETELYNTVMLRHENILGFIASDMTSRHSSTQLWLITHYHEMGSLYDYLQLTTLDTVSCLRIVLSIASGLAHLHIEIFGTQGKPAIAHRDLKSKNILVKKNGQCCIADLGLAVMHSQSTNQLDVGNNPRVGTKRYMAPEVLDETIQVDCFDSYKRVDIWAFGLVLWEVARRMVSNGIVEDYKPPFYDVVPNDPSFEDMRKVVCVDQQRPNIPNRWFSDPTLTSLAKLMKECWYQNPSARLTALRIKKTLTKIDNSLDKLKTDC
The conditions noted are these: read-out: %Inh ACVR1.

Sequence of BLK (P51451 whole entry): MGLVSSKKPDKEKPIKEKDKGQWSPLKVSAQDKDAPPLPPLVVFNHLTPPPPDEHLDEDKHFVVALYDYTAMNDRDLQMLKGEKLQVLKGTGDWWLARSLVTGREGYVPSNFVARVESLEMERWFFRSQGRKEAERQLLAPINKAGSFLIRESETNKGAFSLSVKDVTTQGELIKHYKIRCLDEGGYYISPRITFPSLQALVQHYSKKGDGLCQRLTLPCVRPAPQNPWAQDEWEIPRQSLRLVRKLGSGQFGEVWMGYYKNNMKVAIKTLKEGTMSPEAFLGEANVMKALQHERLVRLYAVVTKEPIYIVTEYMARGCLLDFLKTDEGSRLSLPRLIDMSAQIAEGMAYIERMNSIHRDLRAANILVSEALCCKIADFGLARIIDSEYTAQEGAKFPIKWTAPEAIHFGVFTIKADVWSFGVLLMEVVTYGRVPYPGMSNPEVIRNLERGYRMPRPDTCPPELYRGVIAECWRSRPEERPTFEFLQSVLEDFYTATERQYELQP
Sequence of ERK3 (Q16659 whole entry): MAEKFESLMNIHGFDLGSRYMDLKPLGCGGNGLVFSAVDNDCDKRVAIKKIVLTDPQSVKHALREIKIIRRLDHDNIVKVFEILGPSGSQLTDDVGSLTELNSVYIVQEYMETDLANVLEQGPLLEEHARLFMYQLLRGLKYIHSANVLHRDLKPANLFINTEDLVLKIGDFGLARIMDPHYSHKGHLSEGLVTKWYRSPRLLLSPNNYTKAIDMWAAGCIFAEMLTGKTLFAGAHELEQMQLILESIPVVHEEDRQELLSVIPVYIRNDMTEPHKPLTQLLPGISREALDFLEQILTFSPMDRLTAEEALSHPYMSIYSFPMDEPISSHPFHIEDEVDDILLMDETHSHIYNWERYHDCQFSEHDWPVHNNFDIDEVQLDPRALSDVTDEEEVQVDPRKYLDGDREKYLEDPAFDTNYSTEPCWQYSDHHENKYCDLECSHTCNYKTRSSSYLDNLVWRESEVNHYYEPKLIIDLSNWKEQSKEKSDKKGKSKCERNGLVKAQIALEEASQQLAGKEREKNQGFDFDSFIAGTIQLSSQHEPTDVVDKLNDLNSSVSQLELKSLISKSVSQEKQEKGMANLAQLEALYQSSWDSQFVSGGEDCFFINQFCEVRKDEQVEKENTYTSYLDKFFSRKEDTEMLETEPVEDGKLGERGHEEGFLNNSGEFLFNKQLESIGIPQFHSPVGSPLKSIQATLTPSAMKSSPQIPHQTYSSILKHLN
Sequence of BRK (Q13882 whole entry): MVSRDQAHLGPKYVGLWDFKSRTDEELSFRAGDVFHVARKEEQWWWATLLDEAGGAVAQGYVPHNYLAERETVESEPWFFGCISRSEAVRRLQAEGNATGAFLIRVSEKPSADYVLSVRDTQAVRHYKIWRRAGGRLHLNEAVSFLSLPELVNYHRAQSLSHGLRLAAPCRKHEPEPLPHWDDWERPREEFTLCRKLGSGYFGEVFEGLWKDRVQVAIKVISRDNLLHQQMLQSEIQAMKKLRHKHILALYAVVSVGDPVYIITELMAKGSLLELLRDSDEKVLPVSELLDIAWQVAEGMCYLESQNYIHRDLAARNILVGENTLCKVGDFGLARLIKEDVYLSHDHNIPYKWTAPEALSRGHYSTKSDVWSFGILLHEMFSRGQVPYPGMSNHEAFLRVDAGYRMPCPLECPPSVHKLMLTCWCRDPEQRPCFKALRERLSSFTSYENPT
Sequence of CAMK1 (Q14012 whole entry): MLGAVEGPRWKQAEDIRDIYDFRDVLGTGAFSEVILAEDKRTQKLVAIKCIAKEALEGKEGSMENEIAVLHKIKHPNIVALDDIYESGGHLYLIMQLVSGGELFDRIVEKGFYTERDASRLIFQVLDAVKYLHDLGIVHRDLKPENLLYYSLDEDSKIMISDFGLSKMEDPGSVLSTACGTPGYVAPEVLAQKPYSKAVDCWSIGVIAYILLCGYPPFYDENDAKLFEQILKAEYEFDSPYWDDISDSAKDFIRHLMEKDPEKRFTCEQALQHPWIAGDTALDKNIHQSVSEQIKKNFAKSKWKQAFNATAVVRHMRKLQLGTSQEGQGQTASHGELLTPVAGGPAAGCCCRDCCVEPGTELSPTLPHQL
Sequence of GSK3A (P49840 whole entry): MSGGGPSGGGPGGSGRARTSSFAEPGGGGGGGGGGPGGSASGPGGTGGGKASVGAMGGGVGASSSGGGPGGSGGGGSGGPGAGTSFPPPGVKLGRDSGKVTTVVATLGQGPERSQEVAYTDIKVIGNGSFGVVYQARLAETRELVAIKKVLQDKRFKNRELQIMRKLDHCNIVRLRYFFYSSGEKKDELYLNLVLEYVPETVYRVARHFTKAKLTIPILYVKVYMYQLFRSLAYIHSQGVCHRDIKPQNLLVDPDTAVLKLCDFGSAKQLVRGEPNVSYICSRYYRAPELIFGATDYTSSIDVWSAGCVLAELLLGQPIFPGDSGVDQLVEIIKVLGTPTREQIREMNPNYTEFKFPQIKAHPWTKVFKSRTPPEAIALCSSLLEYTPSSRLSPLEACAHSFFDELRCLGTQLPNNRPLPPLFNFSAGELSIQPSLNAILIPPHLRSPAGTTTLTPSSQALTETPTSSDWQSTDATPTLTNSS
Sequence of FYN (P06241 whole entry): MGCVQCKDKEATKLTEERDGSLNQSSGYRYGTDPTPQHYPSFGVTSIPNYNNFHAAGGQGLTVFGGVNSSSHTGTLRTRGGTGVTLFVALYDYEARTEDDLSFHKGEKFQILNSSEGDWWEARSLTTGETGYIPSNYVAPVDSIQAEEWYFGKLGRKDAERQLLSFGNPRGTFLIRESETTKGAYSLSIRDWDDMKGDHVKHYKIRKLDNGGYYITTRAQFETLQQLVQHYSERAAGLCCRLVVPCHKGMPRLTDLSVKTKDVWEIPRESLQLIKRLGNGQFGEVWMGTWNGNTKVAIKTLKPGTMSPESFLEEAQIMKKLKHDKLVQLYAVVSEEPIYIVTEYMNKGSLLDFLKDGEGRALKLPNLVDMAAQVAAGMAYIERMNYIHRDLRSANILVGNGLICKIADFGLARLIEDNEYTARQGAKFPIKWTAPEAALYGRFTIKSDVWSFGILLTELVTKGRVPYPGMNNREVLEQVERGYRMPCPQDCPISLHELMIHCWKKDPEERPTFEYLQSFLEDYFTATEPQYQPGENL

Take `Cn1cc(-c2cnc(N)c3c(-c4ccc5c(c4)CCN5C(=O)Cc4ccccc4)csc23)cn1` [UNC10225012A]: the inhibition at 1 µM was found to be 0% at CAMK1; 25% on FYN; 92.2% on BRK; 35% at MAP3K15; 0% at ERK3; 93% at BLK. Also, the inhibition at 1 µM is 5% at GSK3A and 7% at ACVR1.

Take `CS(=O)(=O)Cc1ccc(Nc2nccc(-c3c(-c4cccc(NC(=O)C5CCCCC5)c4)nn4ncccc34)n2)cc1` [UNC10225159A]: the inhibition at 1 µM on CAMK1 was found to be 0%; on FYN it was 1%; on BRK, 2%; on MAP3K15, 38%; on ERK3, 0%; on BLK it was 0%. Also, the inhibition at 1 µM is 0% at GSK3A and 18% at ACVR1.

For `Cc1ccc(NC(=O)Nc2cccc(C(F)(F)F)c2)cc1` [UNC10225187A], the inhibition at 1 µM at CAMK1 turned out to be 7%; on FYN, 0%; on BRK, 0%; on MAP3K15 it was 0%; at ERK3 it was 0%; at BLK, 0%. The inhibition at 1 µM at GSK3A was found to be 0%; at ACVR1 it was 10%.

In the case of `COc1cccc(OC)c1C(=O)Nc1cccc(-c2nn3ccccc3c2-c2ccnc(Nc3cccc(F)c3)n2)c1` [UNC10225310A], the inhibition at 1 µM at CAMK1 came to 19%; on FYN, 22%; at BRK it was 19%; at MAP3K15, 0%; at ERK3, 1%; on BLK, 41%. In addition, the inhibition at 1 µM on GSK3A worked out at 24%; on ACVR1 it was 17%.

As for `O=c1cc(N2CCOCC2)nc2n(Cc3cccc(Cl)c3Cl)c(C3CC3)nn12` [UNC10225469A], the inhibition at 1 µM is 0% on CAMK1; 6% at FYN; 0% on BRK; 0% on MAP3K15; 0% on ERK3; 0% at BLK. The inhibition at 1 µM at GSK3A worked out at 4%; on ACVR1, 0%.
